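The compound was tested at five concentrations on cells cultured in 96-well plates, with a 48-hour exposure period. GI50 marks 50% less growth.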 Active and inactive are the calls of the source. No stated cut-off is given here; in the data, active = GI50 up to about 1.1 µM and inactive = higher. Bounds are passed on as bounds.

As a reminder, the GI50 is the concentration that inhibits growth by half.

Test systems include 786-0; CCRF-CEM; COLO 205; HCC 2998; HOP-18; HOP-62; HT-29; IGROV-1; LOX IMVI; Malme-3M; OVCAR-4; SF-268; SNB-19; UACC-62; CAKI-1; Hs-578T; MCF7; MDA-MB-435; PC-3; T47D.
Common to all, as to assay: DTP human tumour cell line panel, 48 h

For `c1ccc2c3nc(C4CCCC4)nc-3c(NC3CCCC3)[nH]c2c1`, the GI50 is 8.07 µM (inactive) in the experiment with 786-0; 5.89 µM (inactive) in the experiment on CCRF-CEM; 19 µM (inactive) in the experiment on COLO 205; 6.76 µM (inactive) in the experiment with HCC 2998; 16 µM (inactive) in the experiment on HOP-18; 19.1 µM (inactive) with HOP-62. Besides, the GI50 is 4.6 µM (inactive) in the experiment with HT-29; 20.3 µM (inactive) in the experiment with IGROV-1; 15.8 µM (inactive) in the experiment with LOX IMVI; 16.6 µM (inactive) in the experiment with Malme-3M; 14.4 µM (inactive) with OVCAR-4; 16.9 µM (inactive) with SF-268. Also, the GI50 in the experiment on SNB-19 is 45.1 µM (inactive); in the experiment with UACC-62 it was 14 µM (inactive).
In the case of `O=c1[nH]c(=O)n(C2OC(CO)C(O)C2O)c2nc(-c3ccc(-c4ccccc4)cc3)cnc12` (configuration not stated), the GI50 with 786-0, in the experiment with CAKI-1, with CCRF-CEM, in the experiment on COLO 205, in the experiment on HCC 2998 and in the experiment with HOP-62 was > 100 µM (inactive) each time. The GI50 in the experiment on HT-29, with Hs-578T, in the experiment with IGROV-1, with LOX IMVI, in the experiment with MCF7 and with MDA-MB-435 was > 100 µM (inactive) each time. Further, the GI50 in the experiment on Malme-3M, in the experiment on OVCAR-4, with PC-3, in the experiment with SF-268, in the experiment with SNB-19 and with T47D was > 100 µM (inactive) in each case. In addition, in the experiment with UACC-62, the GI50 was > 100 µM (inactive).
For `CC(C)N(O)C(=N)c1ccccc1`, the GI50 in the experiment with 786-0 was 54.7 µM (inactive); in the experiment with CAKI-1, > 100 µM (inactive); in the experiment with HCC 2998 it was > 100 µM (inactive); with HOP-18, 0.0473 µM (active); with HOP-62, > 100 µM (inactive); in the experiment with HT-29, > 100 µM (inactive). The GI50 was > 100 µM (inactive) with LOX IMVI; > 10 µM (inactive) with Malme-3M; > 100 µM (inactive) with OVCAR-4; > 100 µM (inactive) with SF-268; > 100 µM (inactive) with SNB-19.
As for `CCOC(=O)/C(=C/c1ccc(Cl)cc1)N(CC)CC`, the GI50 in the experiment with 786-0, in the experiment on CAKI-1, in the experiment with CCRF-CEM, with COLO 205, in the experiment on HCC 2998 and with HOP-18 was > 100 µM (inactive) in each case. In addition, the GI50 in the experiment on HOP-62, with HT-29, in the experiment with IGROV-1, with LOX IMVI, in the experiment with Malme-3M and with OVCAR-4 was > 100 µM (inactive) each time. For the same compound, the GI50 in the experiment on SF-268 and in the experiment with UACC-62 was > 100 µM (inactive) each time.
Take `O=c1c2cc(Br)ccc2[nH]c(=S)n1-c1ccc(Br)cc1`: the GI50 was 40.6 µM (inactive) in the experiment on 786-0; > 100 µM (inactive) in the experiment on COLO 205; > 100 µM (inactive) in the experiment with HCC 2998; > 100 µM (inactive) in the experiment on HOP-18; 67.6 µM (inactive) in the experiment with HOP-62; > 100 µM (inactive) with HT-29. Further, the GI50 with IGROV-1 was > 100 µM (inactive); in the experiment with LOX IMVI, 70.6 µM (inactive); with Malme-3M, > 100 µM (inactive); in the experiment on OVCAR-4, 76.4 µM (inactive); in the experiment with SF-268, > 100 µM (inactive); in the experiment on SNB-19, 47.9 µM (inactive).
As to `O=C1C(Cl)=C(N2CCN(c3ncccn3)CC2)C(=O)c2c(O)ccc(O)c21`, the GI50 is 1.6 µM (inactive) in the experiment with 786-0; 2.05 µM (inactive) in the experiment on CAKI-1; 0.211 µM (active) in the experiment on CCRF-CEM; 1.75 µM (inactive) with COLO 205; 10.8 µM (inactive) in the experiment on HCC 2998; 2.55 µM (inactive) with HOP-62. Moreover, the GI50 in the experiment with HT-29 is 2.98 µM (inactive); in the experiment on Hs-578T it was 2.9 µM (inactive); with IGROV-1, 1.9 µM (inactive); in the experiment on LOX IMVI, 1.72 µM (inactive); in the experiment on MCF7, 1.51 µM (inactive); with MDA-MB-435 it was 1.67 µM (inactive). The GI50 is 1.94 µM (inactive) in the experiment with Malme-3M; 1.98 µM (inactive) with OVCAR-4; 3.1 µM (inactive) in the experiment on PC-3; 3.15 µM (inactive) with SF-268; 6.55 µM (inactive) with SNB-19; 2.64 µM (inactive) with T47D. Besides, the GI50 in the experiment on UACC-62 was 2.59 µM (inactive).
In the case of `CCC(=O)Nc1cccc(/N=C/c2ccc(OC(=O)/C=C\c3ccccc3)cc2)c1`, the GI50 was 65.9 µM (inactive) with 786-0; > 75 µM (inactive) in the experiment on CAKI-1; > 75 µM (inactive) in the experiment on CCRF-CEM; 64.7 µM (inactive) in the experiment with COLO 205; 32.3 µM (inactive) in the experiment on HCC 2998; > 75 µM (inactive) in the experiment on HOP-62. Further, the GI50 in the experiment on HT-29 was 36.3 µM (inactive); in the experiment on Hs-578T it was 32.5 µM (inactive); in the experiment with IGROV-1, 37.8 µM (inactive); in the experiment on LOX IMVI, 40.6 µM (inactive); in the experiment on MCF7 it was 25.2 µM (inactive); with MDA-MB-435 it was > 75 µM (inactive). The GI50 in the experiment with Malme-3M was 40.4 µM (inactive); in the experiment with OVCAR-4, 45.4 µM (inactive); in the experiment with PC-3, 67 µM (inactive); in the experiment on SF-268, 36.7 µM (inactive); with SNB-19, > 75 µM (inactive); in the experiment with T47D it was 8.26 µM (inactive). For the same compound, the GI50 in the experiment on UACC-62 is 30.8 µM (inactive).
For `N=C(N)NS(=O)(=O)c1ccc(NC(=O)c2ccc3nc4ccccc4c(O)c3c2)cc1`, the GI50 with 786-0, in the experiment with CAKI-1, with CCRF-CEM, with COLO 205, in the experiment with HCC 2998 and in the experiment with HOP-62 was > 100 µM (inactive) in each case. Besides, the GI50 was > 100 µM (inactive) in the experiment on HT-29; > 100 µM (inactive) with Hs-578T; > 100 µM (inactive) in the experiment on IGROV-1; 49.7 µM (inactive) in the experiment with LOX IMVI; > 100 µM (inactive) with MCF7; > 100 µM (inactive) with MDA-MB-435. Moreover, the GI50 in the experiment with Malme-3M, with OVCAR-4, with PC-3, in the experiment with SF-268, with SNB-19 and in the experiment with T47D was > 100 µM (inactive) each time. In addition, the GI50 with UACC-62 is > 100 µM (inactive).
As to `O=[N+]([O-])c1cccc(C2=NN(c3ccccc3)C[N+](c3ccc(Br)cc3)=N2)c1`, the GI50 with 786-0 is > 100 µM (inactive); with CAKI-1, > 100 µM (inactive); in the experiment on COLO 205, > 100 µM (inactive); with HCC 2998, 70.8 µM (inactive); in the experiment on HOP-18 it was 43.7 µM (inactive); with HOP-62, > 100 µM (inactive). In addition, the GI50 in the experiment on HT-29 is 47.4 µM (inactive); with IGROV-1 it was 37.3 µM (inactive); in the experiment with Malme-3M it was > 100 µM (inactive); in the experiment with OVCAR-4, > 100 µM (inactive); in the experiment with SF-268, > 100 µM (inactive); in the experiment with SNB-19, > 100 µM (inactive). For the same compound, the GI50 in the experiment on UACC-62 is > 100 µM (inactive).
On to `COc1ccc(/C=C2\SC(c3ccc(OC)cc3)N(NC(=O)Cc3ccccc3)C2=O)cc1` (configuration not stated), for which the GI50 in the experiment with 786-0, with CAKI-1, with CCRF-CEM, in the experiment with COLO 205, in the experiment on HOP-18 and in the experiment on HOP-62 was > 100 µM (inactive) in each case. The GI50 in the experiment with HT-29, in the experiment with IGROV-1, with LOX IMVI, in the experiment on Malme-3M, in the experiment with OVCAR-4 and with SF-268 was > 100 µM (inactive) each time. The GI50 in the experiment with UACC-62 was > 100 µM (inactive).
As to `CC1(C)O[C@H]2OC3CCC(=O)CC3(O)[C@H]2O1` (some centres not stated), the GI50 with 786-0, in the experiment on CAKI-1, in the experiment with CCRF-CEM, with COLO 205, in the experiment with HCC 2998 and in the experiment with HOP-62 was > 100 µM (inactive) each time. For the same compound, the GI50 in the experiment on HT-29, in the experiment on Hs-578T, with IGROV-1, in the experiment with LOX IMVI, in the experiment with MCF7 and in the experiment with MDA-MB-435 was > 100 µM (inactive) in each case. Moreover, the GI50 in the experiment on Malme-3M was > 51.6 µM (inactive); with OVCAR-4 it was > 100 µM (inactive); in the experiment with PC-3 it was > 100 µM (inactive); in the experiment with SF-268, > 100 µM (inactive); in the experiment with SNB-19, > 100 µM (inactive); in the experiment on T47D it was > 100 µM (inactive). Besides, the GI50 in the experiment with UACC-62 was > 100 µM (inactive).
In the case of `O=C1/C(=C/c2ccccc2Cl)COc2ccccc21`, the GI50 in the experiment on 786-0 is 15.2 µM (inactive); with CCRF-CEM it was 4.73 µM (inactive); in the experiment with COLO 205, 21.7 µM (inactive); in the experiment with HCC 2998, 20.9 µM (inactive); in the experiment on HOP-18 it was 11.8 µM (inactive); with HOP-62, 16.9 µM (inactive). Further, the GI50 with HT-29 is 19 µM (inactive); with IGROV-1 it was 18.1 µM (inactive); in the experiment with LOX IMVI, 15.3 µM (inactive); with Malme-3M it was 15.5 µM (inactive); in the experiment on SF-268 it was 17.5 µM (inactive).
Regarding `C[C@@]12CCC(=O)c3coc(c31)C(=O)c1cc3c(cc12)C(=O)C=CC3=O` [HELENAQUINONE], the GI50 is 17.2 µM (inactive) with 786-0; 21.1 µM (inactive) in the experiment on CAKI-1; 16 µM (inactive) in the experiment on COLO 205; > 71.3 µM (inactive) in the experiment with HCC 2998; 17.3 µM (inactive) with HOP-18; > 100 µM (inactive) in the experiment on HOP-62. Also, the GI50 was 19.7 µM (inactive) in the experiment on HT-29; 25.9 µM (inactive) with IGROV-1; 8.59 µM (inactive) in the experiment on LOX IMVI; 17.3 µM (inactive) in the experiment on Malme-3M; 18.2 µM (inactive) in the experiment with OVCAR-4; 18.8 µM (inactive) in the experiment on SF-268. In addition, the GI50 was > 100 µM (inactive) in the experiment with SNB-19 and 15.5 µM (inactive) with UACC-62.

For the origin of these results see ChEMBL document CHEMBL1201862, “PubChem BioAssay data set” (2004).
